Measurements: patent US20250339551A1, “AN ANTIBODY-DRUG CONJUGATE HAVING TWO OR MORE DIFFERENT FUNCTIONAL SMALL MOLECULES FOR ENHANCED TREATMENT OF REFRACTORY DISEASES” (HANGZHOU SEEHE BIOTECHNOLOGY CO., LTD, priority 2023, published 2025)

Key:
[1] = test system: GUCY2C-9C9 colon cancer cells; assay: in vivo activity of anti GUCY2C ADCs (FIG. 15); settings: anti GUCY2C antibody drug conjugates, DAR=4.0˜4.2, one time administration, 3.0 mg/Kg, over 20 days, compared with anti GUCY2C antibody-GGFG-Dxd
[2] = test system: C4-2B cell line; type: cell-based; settings: 120 hours incubation, MTT, n = DAR given with each label
From the text: The cell lines used in the cytotoxicity assays were: C4-2B Cells which was obtained from ATCC through license agreement with MD Anderson Cancer Center, Houston, TX, USA. 22RV1, A549, U87, NCI-N87, MKN-7, BxPC-3, JIMT-1, MDA-MB-231, SU86.86, SW1990, OVCAR-3, Calu-3, A431, AsPC-1, CFPAC-1, DMS53, HCC827 and NCI-H1975 cells were purchased from ATCC, Nanjing Cobioer and The Cell Bank of Shanghai Institute of Biochemistry and Cell Biology, and the others. C4-2B and PC-3-4H7 are both Steap1 and PSMA antigen high express cells, but medium expressed of both B7H3 and DLL3 antigens. 22RV1 is low express cells for Steap1, PSMA, B7H3 and DLL3 antigens. U87 is glioblastoma (GBM) cells, NCI-N87 and MKN-7 cell line are stable models of the gastric epithelium. A431 is human epidermoid carcinoma. JIM-1 is trastuzumab-resistant Her2 breast tumor cells. SU86.86, SW1990, CFPAC-1 and AsPC-1 are pancreatic cancer cell lines. OVCAR-3 is ovarian cancer cell lines. Calu-3, HCC827 and NCI-H1975 are a human lung adenocarcinoma. All these cells were grown according to the provider manuals. To run the assay, the cells (180 μl, 6000 cells) were added to each well in a 96-well plate and incubated for 24 hours at 37° C. with 5% CO2. Next, the cells were treated with test compounds (20 μl) at various concentrations in appropriate cell culture medium (total volume, 0.2 mL). The control wells contain cells and the medium but lack the test compounds. The plates were incubated for 120 hours at 37° C. with 5% CO2. MTT (5 mg/mL) was then added to the wells (20 μl) and the plates were incubated for 1.5 hr at 37° C. The medium was carefully removed and DMSO (180 μl) was added afterward. After it was shaken for 15 min, the absorbance was measured at 490 nm and 570 nm with a reference filter of 620 nm. The inhibition % was calculated according to the following equation: […]

[3] = test system: PC-3-4B9 cells; assay: affinities against PC-3-4B9 cells (FIG. 8); type: binding; settings: PC-3-4B9 only express highly PSMA antigens
[4] = test system: PC-3 cells; assay: affinities against nature PC-3 cells (FIG. 10); type: binding; settings: PC-3 cells do not have either Steap1 or PSMA antigens
[5] = test system: C4-2B cells; assay: affinities against C4-2B cells (FIG. 7); type: binding; settings: C4-2B cells highly express both Steap1 and PSMA antigens
[6] = test system: PC-3-4G5 cells; assay: affinities against PC-3-4G5 cells (FIG. 9); type: binding; settings: PC-3-4G5 only express highly Steap1 antigens
From the text: Since PC-3-4G5 only express highly Steap1 antigens, thus both prepared vandortuzumab and the vandortuzumab-C002 had the good affinity for PC-3-4G5 cells.

CC[C@@]1(O)C(=O)OCc2c1cc1n(c2=O)Cc2c-1nc1cc(F)c(C)c3c1c2[C@@H](NC(=O)OCc1ccc(NC(=O)[C@H](C)NC(=O)[C@@H](NC(=O)[C@H](CCC(=O)N[C@H](C(=O)N[C@@H](C)C(=O)NC(=O)[C@H](CCC(=O)NC(c2ccccc2)(c2ccccc2)c2ccccc2)NC(=O)[C@@H]2CCCN2C(=O)[C@@H]2CCCN2C(=O)[C@H](CCCNC(=N)NC(c2ccccc2)(c2ccccc2)c2ccccc2)NC(=O)[C@H](CCCNC(=N)NC(c2ccccc2)(c2ccccc2)c2ccccc2)NC(=O)[C@H](CCCNC(=N)NC(c2ccccc2)(c2ccccc2)c2ccccc2)NC(=O)[C@H](CCC(=O)NC(c2ccccc2)(c2ccccc2)c2ccccc2)NC(=O)[C@H](CCCNC(=N)NC(c2ccccc2)(c2ccccc2)c2ccccc2)NC(=O)[C@H](CCCNC(=N)NC(c2ccccc2)(c2ccccc2)c2ccccc2)NC(=O)[C@H](CCCCNC(=O)OC(C)(C)C)NC(=O)[C@H](CCCCNC(=O)OC(C)(C)C)NC(=O)[C@H](CCCNC(=N)NC(c2ccccc2)(c2ccccc2)c2ccccc2)NC(=O)CNC(=O)OCC2c4ccccc4-c4ccccc42)C(C)C)NC(=O)CCCNC(=O)[C@H](CCCCNC(=O)COCCOCCOCCOCCOCCOCCOCCOCCOCCOC)NC(=O)CCCN2C(=O)C=CC2=O)C(C)C)cc1C(=O)NCCOCCOCCOCCOCCOCCOCCOCCOC)CC3 [compound 570]
in vivo antitumor activity over time [1]: better antitumor activity than the regular GGFG-Dxd conjugate

CC[C@@]1(O)C(=O)OCc2c1cc1n(c2=O)Cc2c-1nc1cc(F)c(C)c3c1c2[C@@H](NC(=O)[C@H](C)NC(=O)[C@@H](NC(=O)[C@H](CCC(=O)NCCOCCOCCNC(=O)c1ccc(C(=O)NCCCCC(=O)NCCCC[C@H](NC(=O)N[C@@H](CCC(=O)O)C(=O)O)C(=O)O)cc1)NC(=O)C1CCN(C(=O)CS)CC1)C(C)C)CC3 [C060]
IC50 [2]: 7.57 nM

CC[C@@]1(O)C(=O)OCc2c1cc1n(c2=O)Cc2c-1nc1cc(F)c(C)c3c1c2[C@@H](NC(=O)OCC[N+](C)(C)Cc1ccc(NC(=O)[C@H](C)NC(=O)[C@@H](NC(=O)[C@H](CCC(=O)N(CCNC(=O)CCOCCOCCNC(=O)c2ccc(C(=O)NCCCCC(=O)NCCCC[C@H](NC(=O)N[C@@H](CCC(=O)O)C(=O)O)C(=O)O)cc2)CCNC(=O)CCOCCOCCNC(=O)c2ccc(C(=O)NCCCCC(=O)NCCCC[C@H](NC(=O)N[C@@H](CCC(=O)O)C(=O)O)C(=O)O)cc2)NC(=O)CCCN2C(=O)CC(S)C2=O)C(C)C)cc1)CC3 (stereo partly drawn) [C045]
IC50 [2]: 6.76 nM

CC[C@@]1(O)C(=O)OCc2c1cc1n(c2=O)Cc2c-1nc1cc(F)c(C)c3c1c2[C@@H](NC(=O)OCC[N+](C)(C)Cc1ccc(NC(=O)[C@H](C)NC(=O)[C@@H](NC(=O)[C@H](CCC(=O)NCCOCCOCCNC(=O)c2ccc(C(=O)NCCCCC(=O)NCCCC[C@H](NC(=O)N[C@@H](CCC(=O)O)C(=O)O)C(=O)O)cc2)NC(=O)CCCN2C(=O)CC(S)C2=O)C(C)C)cc1)CC3 (stereo partly drawn) [C044]
IC50 [2]: 7.87 nM

CCc1c2c(nc3cc(F)c(NC(=O)CNC(=O)[C@H](C)NC(=O)[C@@H](NC(=O)[C@H](CCC(=O)NCCOCCOCCNC(=O)c4ccc(C(=O)NCCCCC(=O)NCCCC[C@H](NC(=O)N[C@@H](CCC(=O)O)C(=O)O)C(=O)O)cc4)NC(=O)CCCN4C(=O)CC(S)C4=O)C(C)C)cc13)-c1cc3c(c(=O)n1C2)COC(=O)[C@]3(O)CC (stereo partly drawn) [C040]
IC50 [2]: 4.27 nM

B1: vandortuzumab-C002 (conjugate, chains of the INN, looked up)
VH: EVQLVESGGGLVQPGGSLRLSCAVSGYSITSDYAWNWVRQAPGKGLEWVGYISNSGSTSYNPSLKSRFTISRDTSKNTLYLQMNSLRAEDTAVYYCARERNYDYDDYYYAMDYWGQGTLVTVSS
VL: DIQMTQSPSSLSASVGDRVTITCKSSQSLLYRSNQKNYLAWYQQKPGKAPKLLIYWASTRESGVPSRFSGSGSGTDFTLTISSLQPEDFATYYCQQYYNYPRTFGQGTKVEIK
modifications: drug conjugate C002
affinity against PC-3-4B9 cells [3]: had the affinity | affinity against nature PC-3 cells [4]: not able to show the affinity at all | affinity against C4-2B cells [5]: better affinity for the C4-2B cells than the naked (unconjugated) antibodies | affinity against PC-3-4G5 cells [6]: good affinity
